Where a name gives a salt, the structure may show the parent alone.
Target: T1, VACV D9 decapping enzyme (Vaccinia virus, UniProt P04311)
T1 construct: His-tag (C); made in house
Assay: biochemical
Assay type: biochemical
Conditions: not given
Description: Point fluorescence measurements were performed using the BioTek Synergy H1 microplate reader. Before each measurement, the reaction buffer was degassed. Experiments were performed in the Greiner 96-well, black, non-binding plates at 30 °C. Before the measurement, the plate was preincubated for 15 min at 30 °C with mixing (300 rpm). The point fluorescence was registered with 1 min interval and detection at 345 nm excitation wavelength and 378 nm emission wavelength.
Experiments to determine IC50 parameters were performed as point fluorescence measurements. Each well contained an appropriate buffer (10 mM MOPS·HCl, pH 7.0, 100 mM KOAc, containing 2 mM MgCl2, 0.3 mM MnCl2, and 2 mM DTT) with addition of 0.1% BSA, a fluorescent substrate (3 μM of probe 1b), an inhibitor (in half-logarithmic dilution, cinh ∈ 0, 100 μM), and an enzyme (5 nM of D9) to a final volume of 150 μL. To determine the IC50 values, a three parameter dose–response formula with standard hill slope from GraphPad Prism software was fitted [drawing 3] where V/V0 is the relative initial rate of the reaction, Imin and Imax are bottom and top plateaus, and Cinh is the concentration of the inhibitor.

| Compound | IC50 [µM] |
| --- | --- |
| Nc1nc2c(cnn2CCc2ccccc2)c2nc(-c3ccco3)nn12 [SCH 58261, reference compound] | 4.5 ± 0.8 |
| Nc1nc2ccc(Cl)cc2c2nc(-c3ccco3)nn12 [CGS-15943, reference compound] | 20.1 ± 5.2 |
| COc1cc(NS(C)(=O)=O)ccc1Nc1c2ccccc2nc2ccccc12 [amsacrine hydrochloride, reference compound] | 12.6 ± 1.7 |

Same assay, conditions: in-house nucleotide library (Table S1, Figure 3); 3 μM probe 1b, 5 nM D9, 30 °C; means of 3 independent experiments ± SEM; read-out: IC50, nucleotide-derived compounds, FLINT HTS assay

| Compound | IC50 [µM] |
| --- | --- |
| Gpp-triazole-m7G | > 100 |
| Cn1c[n+]([C@@H]2O[C@H](COP(=O)(O)OP(=O)(O)OP(=O)(O)OC[C@H]3O[C@@H](n4cnc5c(N)ncnc54)[C@H](O)[C@@H]3O)[C@@H](O)[C@H]2O)c2nc(N)[nH]c(=O)c21 [m7GpppA] | 33 ± 5.9 |
| Gppp-triazole-m7G | 35 ± 5.3 |
| Cn1c[n+]([C@@H]2O[C@H](COP(=O)(O)O)[C@@H](O)[C@H]2O)c2nc(N)[nH]c(=O)c21 [m7GMP] | > 100 |
| Nc1nc2c(ncn2[C@@H]2O[C@H](COP(=O)(O)OP(=O)(O)OP(=O)(O)OC[C@H]3O[C@@H](n4cnc5c(=O)[nH]c(N)nc54)[C@H](O)[C@@H]3O)[C@@H](O)[C@H]2O)c(=O)[nH]1 [GpppG] | > 100 |
| CNc1ncnc2c1ncn2[C@@H]1O[C@H](COP(=O)(O)OP(=O)(O)OP(=O)(O)OC[C@H]2O[C@@H](n3c[n+](C)c4c(=O)[nH]c(N)nc43)[C@H](O)[C@@H]2O)[C@@H](OP(=O)(O)OC[C@H]2O[C@@H](n3cnc4c(=O)[nH]c(N)nc43)[C@H](O)[C@@H]2O)[C@H]1O [m7Gpppm6ApG] | 16.9 ± 3.2 |
| m7GppCCl2ppm7G | 28.8 ± 4.1 |
| Gppp-SCH2-triazole-m7G | > 100 |
| m7Gppp m6AmpG | 17.4 ± 3 |
| C[n+]1cn(C2OC(COP(=O)(O)OP(=O)([O-])C(F)(F)P(=O)(O)OP(=O)(O)OCC3OC(n4cnc5c(=O)[nH]c(N)nc54)C(O)C3O)C(O)C2O)c2nc(N)nc(O)c21 (stereo not shown) [m7GppCF2ppG] | 16.7 ± 3.1 |
| CO[C@H]1[C@@H](O)[C@H]([n+]2cn(C)c3c(=O)[nH]c(N)nc32)O[C@@H]1COP(=O)([O-])OP(=O)(O)OP(=O)(O)OC[C@H]1O[C@@H](n2cnc3c(=O)[nH]c(N)nc32)[C@H](O)[C@@H]1O [m27,3’OGpppG] | 10.6 ± 1.1 |
| C[n+]1cn([C@@H]2O[C@H](COP(=O)(O)CP(=O)(O)OP(=O)(O)OC[C@H]3O[C@@H](n4cnc5c(=O)[nH]c(N)nc54)[C@H](O)[C@@H]3O)[C@@H](O)[C@H]2O)c2nc(N)[nH]c(=O)c21 [m7GpCH2ppG] | 16.8 ± 3.3 |
| CNc1ncnc2c1ncn2[C@@H]1O[C@H](COP(=O)(O)OP(=O)(O)OP(=O)(O)OC[C@H]2O[C@@H](n3c[n+](C)c4c(=O)[nH]c(N)nc43)[C@H](O)[C@@H]2O)[C@@H](O)[C@H]1O [m7Gppp(m6A)] | 31.5 ± 5.9 |
| m7GpppApG | 11.3 ± 2 |
| C[n+]1cn(C2OC(COP(=O)([O-])OP(=O)(O)C(F)(F)P(=O)(O)OP(=O)([O-])OCC3OC(n4c[n+](C)c5c(=O)[nH]c(N)nc54)C(O)C3O)C(O)C2O)c2nc(N)[nH]c(=O)c21 (stereo not shown) [m7GppCF2ppm7G] | 14.7 ± 2.6 |
| m7Gmppp6SG | 7.2 ± 1.1 |
| m7GNpppG | 32.1 ± 5.9 |
| C[n+]1cn(C2OC(COP(=O)([O-])OP(=O)(O)OP(=O)(O)OP(=O)(O)OP(=O)(O)OCC3OC(n4cnc5c(=O)[nH]c(N)nc54)C(O)C3O)C(O)C2O)c2nc(N)[nH]c(=O)c21 (stereo not shown) [m7GpppppG] | 13.9 ± 2.5 |
| Cc1n([C@@H]2O[C@H](COP(=O)(O)OP(=O)(O)O)[C@@H](O)[C@H]2O)c2nc(N)[nH]c(=O)c2[n+]1C [Compound 8Mem7GDP, 8Mem7GDP] | > 100 |

| Compound | IC50 [µM] |
| --- | --- |
| Gpp-SCH2-triazole-m7G | > 100 |
| C[n+]1cn([C@@H]2O[C@H](COP(=O)(O)OP(=O)(O)OP(=O)(O)OC[C@H]3O[C@@H](n4c[n+](C)c5c(=O)[nH]c(N)nc54)[C@H](O)[C@@H]3O)[C@@H](O)[C@H]2O)c2nc(N)[nH]c(=O)c21 [m7Gpppm7G] | 14.3 ± 2.1 |
| Nc1nc2c(ncn2[C@@H]2O[C@H](COP(=O)(O)OP(=O)(O)OP(=O)(O)O)[C@@H](O)[C@H]2O)c(=O)[nH]1 [GTP, reference compound] | 15.4 ± 2.7 |
| C[n+]1cn([C@@H]2O[C@H](COP(O)(=S)OP(=O)(O)O)[C@@H](O)[C@H]2O)c2nc(N)[nH]c(=O)c21 (stereo partly shown) [m7GDPαS D2] | 7.6 ± 1.2 |
| m7Gpp-SCH2-triazole-G | 46 ± 6.8 |
| C[n+]1cn([C@@H]2O[C@H](COP(O)(=S)OP(=O)(O)OP(=O)(O)O)[C@@H](O)[C@H]2O)c2nc(N)[nH]c(=O)c21 (stereo partly shown) [m7GTPαS] | 0.64 ± 0.06 |
| Nc1ncnc2c1ncn2[C@@H]1O[C@H](COP(=O)(O)OP(=O)(O)OP(=O)(O)OC[C@@H]2O[C@H](n3cnc4c(N)ncnc43)[C@@H](O)[C@H]2O)[C@@H](O)[C@H]1O [ApppA] | > 100 |
| CO[C@@H]1[C@H](OP(=O)(O)OC[C@H]2O[C@@H](n3cnc4c(=O)[nH]c(N)nc43)[C@H](O)[C@@H]2O)[C@@H](COP(=O)(O)CP(=O)(O)OP(=O)([O-])OC[C@H]2O[C@@H](n3c[n+](C)c4c(O)nc(N)nc43)[C@H](O)[C@@H]2O)O[C@H]1n1cnc2c(N)ncnc21 [m7GppCH2pAmpG] | 27.4 ± 6.2 |
| C[n+]1cn([C@@H]2O[C@H](COP(=O)([O-])OP(=O)(O)CP(=O)(O)O)[C@@H](O)[C@H]2O)c2nc(N)nc(O)c21 [m7GppCH2p] | 1.1 ± 0.1 |
| m7GppCCppG | 24.4 ± 4 |
| m7Gpp-triazole-G | 17.5 ± 2.6 |
| CO[C@@H]1[C@H](OP(=O)(O)OC[C@H]2O[C@@H](n3cnc4c(=O)[nH]c(N)nc43)[C@H](O)[C@@H]2O)[C@@H](COP(=O)(O)OP(=O)(O)OP(=O)([O-])OC[C@H]2O[C@@H]([n+]3cn(C)c4c(=O)[nH]c(N)nc43)[C@H](O)[C@@H]2O)O[C@H]1n1cnc2c(N)ncnc21 [m7GpppAmpG] | 20.4 ± 3.4 |
| C[n+]1cn([C@@H]2O[C@H](COP([O-])(=S)OP(=O)(O)O)[C@@H](O)[C@H]2O)c2nc(N)[nH]c(=O)c21 (stereo partly shown) [m7GDPαS D1] | 8.3 ± 1.7 |
| C[n+]1cn(C2OC(COP(=O)([O-])OP(=O)(O)OP(=O)(O)OCC3OC(n4cnc5c(=S)[nH]c(N)nc54)C(O)C3O)C(O)C2O)c2nc(N)[nH]c(=O)c21 (stereo not shown) [m7Gppp6SG] | 14.1 ± 1.7 |
| Nc1nc2c(ncn2[C@@H]2O[C@H](COP(=O)(O)OP(=O)(O)OP(=O)(O)OC[C@H]3O[C@@H](n4cnc5c(N)ncnc54)[C@H](O)[C@@H]3O)[C@@H](O)[C@H]2O)c(=O)[nH]1 [GpppA] | > 100 |
| Cc1n([C@@H]2O[C@H](COP(=O)(O)OP(=O)(O)OP(=O)(O)O)[C@@H](O)[C@H]2O)c2nc(N)[nH]c(=O)c2[n+]1C [Compound 8Mem7GTP, 8Mem7GTP] | 42.9 ± 7.8 |
| Nc1ncnc2c1ncn2[C@@H]1O[C@H](COP(O)(=S)OP(=O)(O)OP(O)(=S)OC[C@H]2O[C@@H](n3cnc4c(N)ncnc43)[C@H](O)[C@@H]2O)[C@@H](O)[C@H]1O (stereo partly shown) [ApSppSA] | > 100 |
| CO[C@@H]1[C@H](O)[C@@H](COP(=O)(O)OP(=O)(O)OP(=O)(O)OC[C@H]2O[C@@H]([n+]3cn(C)c4c(=O)[nH]c(N)nc43)[C@H](O)[C@@H]2O)O[C@H]1n1cnc2c(N)ncnc21 [m7GpppAm] | 19.8 ± 3.6 |

Same assay, conditions: read-out: IC50, nucleotide-derived compounds, FLINT HTS assay; in-house nucleotide library (Table S1, Figure 3); 3 μM probe 1b, 5 nM D9, 30 °C; means of 3 independent experiments ± SEM

| Compound | IC50 [µM] |
| --- | --- |
| C[n+]1cn([C@@H]2O[C@H](COP(=O)(O)CP(=O)([O-])OP(=O)(O)O)[C@@H](O)[C@H]2O)c2nc(N)nc(O)c21 [m7GpCH2pp] | 0.58 ± 0.06 |
| CO[C@@H]1[C@H](OP(=O)(O)OC[C@H]2O[C@@H](n3cnc4c(=O)[nH]c(N)nc43)[C@H](O)[C@@H]2O)[C@@H](COP(=O)(O)OP(=O)([O-])OP(=O)(O)OC[C@H]2O[C@@H](n3c[n+](C)c4c(=O)[nH]c(N)nc43)[C@H](O)[C@@H]2OC)O[C@H]1n1cnc2c(=O)[nH]c(N)nc21 [m7GmpppGmpG] | 3.9 ± 0.5 |

Same assay, conditions: read-out: IC50, nucleotide-derived compounds, FLINT HTS assay; in-house nucleotide library (Table S1, Figure 3); 3 μM probe 1b, 5 nM D9, 30 °C; means of 3 independent experiments ± SEM; listed as m^7GmpppGmpG

| Compound | IC50 [µM] |
| --- | --- |
| CO[C@@H]1[C@H](OP(=O)(O)OC[C@H]2O[C@@H](n3cnc4c(=O)[nH]c(N)nc43)[C@H](O)[C@@H]2O)[C@@H](COP(=O)(O)OP(=O)([O-])OP(=O)(O)OC[C@H]2O[C@@H](n3c[n+](C)c4c(=O)[nH]c(N)nc43)[C@H](O)[C@@H]2OC)O[C@H]1n1cnc2c(=O)[nH]c(N)nc21 [m7GmpppGmpG] | ~4 |

Reference: publication PMC9207806 (ACS Chemical Biology, 2022)
